In PubChem BioAssay (NCI) one finds GI50 and TGI data, which are given here for eight molecules.

Several values for one entry are separate records, joined by “and”; a condition that tells them apart may be missing. Equal values may be shown once.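 96-well plates; 48 h exposure; 5 concentrations. Endpoints by linear interpolation between flanking doses. Not reached: highest tested concentration assigned. GI50 = concentration required for 50% inhibition of growth. At the TGI there is no net growth.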

Holding throughout (test): inhibition of tumour cell growth, NCI panel, 48 h
The test system of assay [1] is A498 renal.
Assay [2] has as its system HCC-2998 colon.
Assay [3] has as its system MCF7 breast.
In assay [4] the test system is NCI-H460 lung.
Assay [5] relates to NCI-H522 lung.
The test system of assay [6] is RPMI-8226 leukemia.
The subject of assay [7] is SK-MEL-28 melanoma.
The test system of assay [8] is SK-MEL-5 melanoma.
The test system of assay [9] is SNB-75 CNS.
The subject of assay [10] is SW-620 colon.

As for `COc1cc2c(cc1C)NC(=O)/C2=C\c1cccc(Oc2ccccc2)c1`, the GI50 was 10.5 µM in assay [1]; 11.6 µM in assay [2]; 6.73 µM in assay [3]; 12.9 µM in assay [4]; 13.5 µM in [5]; 5.02 µM in assay [6]. The GI50 in [7] is 18.1 µM; in [8], 11.6 µM; in assay [9] it was 25 µM; in assay [10] it was 16.1 µM. In addition, the TGI in assay [1] came to 22.5 µM; in [2] it was 24.4 µM; in assay [3], 24 µM; in [4], 27.2 µM; in assay [5] it was 34.4 µM; in [6], 24 µM. Further, the TGI worked out at 34.9 µM in assay [7], 23.8 µM in assay [8], 49.6 µM in assay [9] and 32.9 µM in [10].
As for `NC(=O)c1cc(-c2ccc(F)cc2)cc(-c2ccncc2)c1N`, the GI50 in assay [1] is 4.17 µM; in assay [2], over 25 µM; in assay [3] it was over 25 µM; in [4], over 25 µM; in [5], over 25 µM; in [6] it was over 25 µM. In addition, the GI50 in assay [7] is over 25 µM; in assay [8] it was over 20.2 µM; in assay [9] it was 4.99 µM; in [10], over 25 µM. Moreover, the TGI was over 23.6 µM in assay [1]; over 25 µM in [2]; over 25 µM in [3]; over 25 µM in [4]; over 25 µM in assay [5]; over 25 µM in assay [6]. Besides, the TGI in [7], in assay [8], in assay [9] and in assay [10] was over 25 µM each time.
With `COc1cc(Nc2ccnc(NCCCNc3ccnc4cc(Cl)ccc34)n2)cc(OC)c1`, the GI50 in assay [1] was 1 µM; in [2], 1.58 µM; in assay [3] it was 1.28 µM; in [4], 1.46 µM; in assay [5], 1.8 µM; in assay [6], 1.56 µM. Besides, the GI50 was 1.66 µM in assay [7], 1.51 µM in assay [8], 1.31 µM in [9] and 1.28 µM in assay [10]. Also, the TGI in [1] worked out at 2.81 µM; in assay [2], 3.36 µM; in assay [3], 3 µM; in assay [4], 3.77 µM; in assay [5] it was 3.78 µM; in [6], 4.11 µM. For the same molecule, the TGI came to 3.09 µM in assay [7], 2.84 µM in assay [8], 2.58 µM in assay [9] and 2.78 µM in assay [10].
With `COc1cc(/C=C/C(=O)c2ccc(NC(=O)CN3CCN(c4cc5c(cc4F)c(=O)c(C(=O)O)cn5C4CC4)CC3)cc2)cc(OC)c1OC`, the GI50 in assay [1] was 0.825 µM; in assay [2] it was 3.16 µM; in assay [3], 0.381 µM; in assay [4] it was 0.497 µM; in [5], 0.976 µM; in [6] it was 0.31 µM. Besides, the GI50 in assay [7] was 1.42 µM; in assay [8] it was 0.871 µM; in assay [9], 2.41 µM; in assay [10], 0.485 µM. Besides, the TGI in [1] is 2.83 µM; in assay [2], 14.1 µM; in assay [3] it was over 100 µM; in assay [5] it was 3.77 µM; in assay [7], 12.7 µM; in assay [8] it was 4.39 µM. In assay [9], this molecule yielded a TGI of over 23.9 µM.
With `COC(=O)C1=C(C)NC(C)=C(C(=O)OC)C1/C=C(Cl)/C=C/c1ccccc1`, the GI50 in assay [1] was 16.8 µM; in assay [2], 14 µM; in assay [3] it was 24.4 µM; in assay [4], 18.6 µM; in [5], 21.7 µM; in [6], 32.2 µM. In addition, the GI50 in assay [7] is 17.1 µM; in assay [8], 17.2 µM; in assay [9], 20 µM; in assay [10], 37.3 µM. In addition, the TGI in assay [1] was 36 µM; in assay [2], 27.2 µM; in [3] it was 78.5 µM; in assay [4] it was 45.4 µM; in assay [5], 72 µM; in [6] it was over 100 µM. Besides, the TGI is 35 µM in assay [7], 33.4 µM in [8], 54.8 µM in assay [9] and over 100 µM in assay [10].
For `NC(=O)c1ccc2nc(-c3ccc(Oc4ccc(Cl)cc4)cc3)[nH]c2c1`, the GI50 is 21.2 µM and 15.7 µM in [1]; 33.1 µM and 6.4 µM in assay [3]; 23.4 µM and 14.1 µM in assay [4]; 18.9 µM and 19.9 µM in assay [5]; > 75 µM and 10.9 µM in assay [6]; 40.4 µM and 15.6 µM in assay [7]. The GI50 is 28.7 µM and 7.98 µM in assay [8]; 37 µM and 18.3 µM in assay [9]; 23 µM and 9.61 µM in [10]. Further, the TGI was 75 µM and 30.1 µM in [1]; 75 µM and 33.5 µM in assay [2]; 75 µM and 23.9 µM in assay [3]; 75 µM and 32.7 µM in assay [4]; 75 µM and 75.2 µM in assay [5]; > 75 µM and 37.6 µM in [6]. Moreover, the TGI was 75 µM and 29 µM in assay [7]; 75 µM and 23.7 µM in assay [8]; 75 µM and 38.5 µM in assay [9]; 75 µM and 25.9 µM in [10].
For `Nc1nc(-c2ccc(F)cc2)c(-c2ccc3ncccc3n2)s1`, the GI50 in [1] was 3.83 µM; in assay [2] it was over 25 µM; in assay [3], 9 µM; in assay [4], 8.7 µM; in [5], 8.31 µM; in [6], over 19.8 µM. Moreover, the GI50 is over 25 µM in assay [7], 13.1 µM in [8], 5.04 µM in assay [9] and over 25 µM in assay [10]. For the same molecule, the TGI is 19.4 µM in assay [1]; over 25 µM in [2]; over 25 µM in assay [3]; over 25 µM in [4]; over 25 µM in [5]; over 25 µM in assay [6]. Also, the TGI in assay [7], in [8], in [9] and in assay [10] was over 25 µM throughout.
With `COc1cc(C2=C(C#Cc3ccccc3)COC2=O)cc(OC)c1OC`, the GI50 in assay [1] is 41.1 µM; in assay [2] it was 12.4 µM; in assay [3], 0.193 µM; in assay [4] it was 3.3 µM; in [5], 3.01 µM; in assay [6], 1.34 µM. Further, the GI50 in [8] is 2.56 µM; in assay [9], 4.98 µM; in assay [10], 0.755 µM. The TGI is over 100 µM in [1]; 25.8 µM in assay [2]; over 100 µM in assay [3]; over 100 µM in assay [4]; over 33.7 µM in assay [5]; 4.05 µM in assay [6]. For the same molecule, the values for the TGI in [7], in assay [8] and in assay [9] were over 100 µM, 20.1 µM and over 100 µM, respectively.
